Test results taken from patent US20060141013A1, “Lysine mixture and apparatus and method for administering lysine” (priority 2002, published 2006).

Key:
[1] = maximum amount of L-lysine capable of being dissolved in water; format: physicochemical; details: water @ 20 °C
Procedure: Various different concentrations of L-lysine may be used in the mixture. In one embodiment, L-lysine is initially dissolved in water at a concentration of 500 mg/ml. The L-lysine/water solution is then mixed with the palatable base substance at a 1:1 ratio (i.e., 50% solution and 50% palatable base), resulting in an L-lysine concentration of 250 mg/ml. Given that the current recommended dosage of L-lysine is 250 to 1000 mg daily, two 2 ml doses may be administered daily. Alternatively, a single 4 ml dose may be administered (if the cat is willing to consume the 4 ml dose). It should be noted, however, that the underlying principles of the invention are not confined to any particular concentration of L-lysine or any particular dosage. For example, any concentration up to the maximum amount capable of being dissolved in water may be used (e.g., 64.2 gm/100 ml water @ 20 °C, or approximately 650 mg/ml). Moreover, the L-lysine solution may then be added to the palatable base at various different ratios, based on the desired L-lysine concentration and/or the desired consistency of the final mixture (e.g., 2:1, 3:1, 1:2, . . . etc).

[2] = water @ 20 °C; cited from earlier work
[3] = tested on: Feline herpesvirus type I (FHV-1); details: cats maintained on oral L-lysine; cited from earlier work

NCCCC[C@H](N)C(=O)O [L-lysine]
maximum amount capable of being dissolved in water (approximate concentration) [1]: approximately 650 mg/ml
maximum amount capable of being dissolved in water [2]: 64.2 gm/100 ml
severity and duration of infection if signs of the virus reoccur [3]: milder and of a shorter duration
time between ocular viral flare-ups [3]: longer period of time between ocular viral flare-ups
